Patent US20250281676A1 (priority 2020, published 2025)

Assays:
carcinomas = details: delivered with pH sensitive hydrogels; cited from earlier work
tumor = details: delivered by thermosensitive, biodegradable hydrogels; gradual release, local delivery to tumor site; cited from earlier work
[1] = Net charge and isoelectric point of peptide; assay type: physicochemical; details: pH 7
Excerpt: The peptide may be purified. For example, the peptide may be lyophilized. […] Other peptides are within the scope of the disclosure.
Exemplary peptides having a charge of +5 to +9 include […](d)[…], […] (d)[…], and […] (d)[…]. In other embodiments, the purified peptide may be substantially neutral. […] Net charge may be selected by peptide design. Design of electrostatic charge in the peptide hydrogel may allow control of charge interaction with cell membrane and proteins.

| Compound | tumor size compared to systemic delivery (carcinomas) | further results |
| --- | --- | --- |
| O=c1[nH]cc(F)c(=O)[nH]1 [5-fluorouracil] | significant decrease in tumor size | – |
| COc1cccc2c1C(=O)c1c(O)c3c(c(O)c1C2=O)C[C@@](O)(C(=O)CO)C[C@@H]3O[C@H]1C[C@H](N)[C@H](O)[C@H](C)O1 [DOX, Doxorubicin] | – | treatment outcomes compared to systemic treatment modalities (tumor): improved treatment outcomes |
| CN(C)C(=N)N=C(N)N [metformin] | significant decrease in tumor size | – |
| VEVSVSVEVdPPTEVSVEVEV-NH2 | – | net charge [1]: net negative charge |
